Patent US20250296942A1, “Phosphonate-Based Coordination Complexes and Methods of Preparation and Use Thereof” (University of Puerto Rico, priority 2021, published 2025)

Columns and labels:
[1] = AlamarBlue cytotoxicity, RISE and nano-Ca@RISE, hFOB 1.19; format: cell-based, human; conditions: human, hFOB 1.19 osteoblast cells, hFOB 1.19, read-out: Relative cell viability (% RCL)
Procedure: (§1) Cell culture methods. The MDA-MB-231 cell line was incubated with DMEM, 1% Pen-Strep, and 10% FBS at 37° C. in 5% CO2. The hFOB 1.19 cell line was incubated with 1:1 DMEM:F-12, 0.3 mg/mL G418, and 10% FBS at 34° C. in 5% CO2. Cell passages were performed weekly at 80% of cell confluency, media was exchanged twice a week.
(§2) Cell treatments. Both cell lines were treated with RISE (control) and nano-Ca@RISE (experimental). […]. Both cell lines (MDA-MB-231 and hFOB 1.19) were seeded in 96 well plates at 2.5×10^5 cell/mL. The cells were incubated for 24 h at 37° C. (MDA-MB-231) and 34° C. (hFOB 1.19), respectively. After the initial incubation period, both cell lines were treated with 100 μL of the RISE solutions previously prepared, and incubation was performed for 24, 48, and 72 h at the respective incubation temperatures. For both cell lines, media (MDA-MB-231: DMEM, Pen-Strep) and (hFOB 1.19: DMEM, F-12, G418) were used with control groups. AlamarBlue® assay was utilized to determine cell proliferation, for this, 10% of AlamarBlue® solution in PBS was prepared. Finally, the media was removed from the 96 well plates, 100 μL of 10% AlamarBlue® solution was added, and the cells were incubated for 4 h at the same previously mentioned conditions. After the AlamarBlue® assay, the fluorescence (λexc=560 nm, λem=590 nm) was evaluated employing an Infinite M200 PRO Tecan Microplate Reader. […]. The nonlinear regression method using Graph Pad Prism 8 was applied to fit the dose-response curves (% cell live vs concentration) and determined the IC50 values for RISE.
(§3) […]. Treatments at these concentrations were carried out at 24, 48, and 72 h for RISE and nano-Ca@RISE. The cell seeding and AlamarBlue® assay were completed as described above for the IC50 determination in both cell lines. […]. All experiments were performed in triplicates and the data was statistically treated using mean, standard deviation, and the coefficient of variation percentage (% CV).
(§4) Cell culture methods for the hFOB 1.19 cell line. This cell line was grown in 1:1 mixture of Ham's F12 Medium Dulbecco's Modified Eagle's Medium accompanied with 10% FBS and 0.3 mg/ml of geneticin (G418), incubated at 34° C. in 5% CO2. Cell passage and cell treatment were performed at 80% of cell confluency. The completed growth media was exchanged every two days.
(§5) Cell seeding. The MDA-MB-231 and hFOB 1.19 cell lines were seeded in 96 well plates at a density of 2.5×10^5 cells/mL, incubation was carried out for 24 h at 37° C. for MDA-MB-231 and 34° C. for osteoblast hFOB 1.19, in 5% CO2. The experiments were conducted in triplicates, three 96 well plates were made for each treatment period (24, 48, and 72 h).
(§6) Cell treatment. To determine the half-maximal inhibitory concentration (IC50), for both cell lines, two-fold serial dilutions of RISE (0-200 μM) were prepared. To assess the relative cell live (% RCL) were employed selected […] (50, 45, 40, and 35 μM) of RISE and nano-Ca@RISE for MDA-MB-231 and hFOB 1.19 cell lines. For this, after the seeding, 100 μL of RISE and nano-Ca@RISE were used to treat the cells. The control groups were treated with just media. Both cell lines were incubated for 24, 48, and 72 h after RISE and nano-Ca@RISE solutions were added.
(§7) AlamarBlue@assay. For both cell lines, after the 24, 48, and 72 h of treatment, the media was removed from the 96 well plates. Subsequently, 100 μL of 10% AlamarBlue® solution was added and incubation was carried out for 4 h. The fluorescence (λexc=570 nm, λem=590 nm) was measured employing an Infinite M200 PRO Tecan Microplate Reader. […]. The IC50 curves and the % RCL values were plotted using the Graph Pad Prism 8 program.

[2] = tested on: normal osteoblast-like hFOB 1.19 cell line; assay: as above; format: cell-based, human; conditions: for IC50: Homo sapiens
Procedure: as §1, §2, §3, §4, §5, §6, §7

O=P(O)(O)C(O)(Cc1cccnc1)P(=O)(O)O [RISE, Monosodium risedronate hemipentahydrate]
viability at 24 h, 35 µM ([1]; 35 μM, 24 h): 100 ± 1%
viability at 48 h, 35 µM ([1]; 35 μM, 48 h): 101%
viability at 72 h, 35 µM ([1]; 35 μM, 72 h): 100 ± 2%
viability at 24 h, 40 µM ([1]; 40 μM, 24 h): 100 ± 1%
viability at 48 h, 40 µM ([1]; 40 μM, 48 h): 100%
viability at 72 h, 40 µM ([1]; 40 μM, 72 h): 100 ± 1%
viability at 24 h, 45 µM ([1]; 45 μM, 24 h): 100 ± 1%
viability at 48 h, 45 µM ([1]; 45 μM, 48 h): 100 ± 1%
viability at 72 h, 45 µM ([1]; 45 μM, 72 h): 99 ± 2%
viability at 24 h, 50 µM ([1]; 50 μM, 24 h): 99 ± 1%
viability at 48 h, 50 µM ([1]; 50 μM, 48 h): 96 ± 4%
viability at 72 h, 50 µM ([1]; 50 μM, 72 h): 98 ± 1%
IC50 ([2]; 24 h): > 200 µM
IC50 ([2]; 48 h): > 200 µM
IC50 ([2]; 72 h): > 200 µM
cell death ([2]; hFOB 1.19, 35 and 40 μM, 24, 48, 72 h): no significant cell death
% RCL ([2]; hFOB 1.19, 45 and 50 μM, time not stated): ~100%
